US9351963B2, “Defensin-like molecules as novel antimicrobial agents” (UNIVERSITY OF MARYLAND, BALTIMORE, priority 2010, dated 2016)

Assays:
[1] = test system: Staphylococcus aureus ATCC 29213; details: previously reported (Wei et al., J Biol Chem 285); cited from earlier work
[2] = test system: Escherichia coli ATCC 25922; experiment: 96-well turbidimetric antibacterial killing assay, E. coli; format: cell-based; details: E. coli ATCC 25922, 120 min exposure
Description: The antibacterial activity of defensin mimetics against Staphylococcus aureus ATCC 29213 and Escherichia coli 25922 was carried out in a 96-well turbidimetric assay essentially as described (Ericksen, B., Wu, Z., Lu, W., and Lehrer, R. I. (2005) Antimicrob Agents Chemother 49, 269-275) with the following modifications: compounds were exposed for 30 min to […] prior to addition of […] in 10 mM phosphate buffer containing 5% DMSO. Bacterial growth was monitored for 12 hours and data were analyzed as described (Ericksen, et al). Determination of MICs was performed by Micromyx, LLC (Kalamazoo, Mich.) according to CLSI standards (CLSI. (2009) Methods for Dilution Antimicrobial Susceptibility Tests for Bacteria That Grow Aerobically; Approved Standard—Eighth Edition.)
The inventors have previously reported on the antibacterial activity of HNP1 and all of its structurally uncompromised single alanine mutants against S. aureus (Wei, G., Pazgier, M., de Leeuw, E., Rajabi, M., Li, J., Zou, G., Jung, G., Yuan, W., Lu, W. Y., Lehrer, R. I., and Lu, W. J Biol Chem 285, 16275-16285). […] If these residues are indeed important for Lipid II binding, one would expect that replacement by alanine will not affect killing of Gram-negative bacteria. […] In particular, FIG. 12 depicts killing of E. coli by HNP-1 Lipid II single alanine mutants. Survival curves of E. coli ATCC 25922 exposed to HNP-1 or HNP-1 single alanine mutants at concentrations varying two-fold from […]. Bacteria were exposed to defensin peptides for 120 min. Each curve is the mean of two separate experiments (±S.D.). Points scored as zero survival could not be plotted.

[3] = Surface Plasmon Resonance binding to immobilized 3-Lipid II (BIAcore); details: SPR, 10 μM, room temperature, 40 RUs 3-Lipid II
Description: Short-chain water-soluble Lipid II containing a lipid tail of three isoprene units was generated and purified essentially as described (Breukink, E., van Heusden, H. E., Vollmerhaus, P. J., Swiezewska, E., Brunner, L., Walker, S., Heck, A. J., and de Kruijff, B. (2003) J Biol Chem 278, 19898-19903). Typically, M. flavus vesicles (120 μmol lipid-Pi) were incubated together with 500 μmol UDP-GlcNAc, 500 μmol UDP-MurNAC-pentapeptide and 400 μmol farnesyl phosphate (3-P) in 100 mM Tris-HCl pH 8.0, 5 mM MgCl2. The incubation lasted two hours at room temperature for 3-P. The synthesis of 3-Lipid II was followed using RP-8 reversed phase TLC (Merck) developed in 75% methanol. For purification, the membranes were removed by centrifugation at 40,000×g and the supernatant was collected and loaded on a C18 HPLC column and eluted with a linear gradient from 50 mM ammonium bicarbonate to 100% methanol in 30 minutes. Farnesyl-Lipid II (3-Lipid II) eluted at approximately 60% methanol. Its identity was confirmed by mass spectroscopy.
Surface Plasmon Resonance binding experiments were carried out on a BIAcore T100 system (BIAcore Inc., Piscataway, N.Y.) at 25° C. The assay buffer was 10 mM HEPES, 150 mM NaCl, 0.05% surfactant P20, pH 7.4 (±3 mM EDTA) supplemented with 10% DMSO. […] For initial determination of binding, defensin mimetics were introduced into the flow-cells (30 μl/min) in the running buffer at 10 μM. Resonance signals were corrected for nonspecific binding by subtracting the background of the control flow-cell. After each analysis, the sensor chip surfaces were regenerated with 50 mM NaOH for 30 s at a flow rate 100 μl/min, and equilibrated with the buffer prior to next injection. For binding kinetics studies, binding isotherms were analyzed with manufacturer-supplied software for BIAcore T100.

[4] = test system: Staphylococcus aureus ATCC 29213; experiment: Antagonization assay of antibacterial activity against S. aureus; format: cell-based; details: for Effect of pre-incubation with D-Ala (Diacetyl-Lys-D-Ala-D-Ala) on killing of S. aureus / Effect of pre-incubation with D-Lac (diacetyl-Lys-D-ala-D-Lac) on killing of S. aureus: 1:200 molar ratio, 30 min
Description: Antagonization of the antibacterial activity of defensins against Staphylococcus aureus ATCC 29213 was carried out in a 96-well turbidimetric assay essentially as described previously (Erickson et al.). Defensins (50 μM final concentration) were pre-incubated with the following compounds for 30 min at RT: 1) 3-Lipid II at 1:1, 1:2.5 and 1:5 defensin:Lipid II molar ratios; or; 2) DiAcetyl-Lys-D-Alanine-D-Alanine and DiAcetyl-Lys-D-Alanine-D-Lac at 1:200 molar ratios. Additionally, vancomycin (500 μM) was pre-incubated separately with D-Ala and D-Lac at a 1:200 molar ratio. Following incubation, solutions were diluted two-fold in ten steps and bacteria were added. Bacterial cells were exposed to HNP1 or vancomycin for 30 min and to HD-5 for 60 min in all studies. Defensin activity was neutralized by the addition of Mueller Hinton broth. Bacterial growth was monitored for 12 hours and data were analyzed as described (Erickson et al.).
Next, the inventors examined whether the antibacterial activity of HNP-1 could be antagonized by soluble Lipid II as a measure for functional interaction. HNP-1 (50 μM) was pre-incubated with 3-Lipid II at varying molar ratios and killing of S. aureus was determined using the vCC protocol (Erickson et al.) (FIG. 3). […] Survival curves of S. aureus ATCC 29213 exposed to HNP1 (at concentrations varying two-fold from 50 to 1.25 μM). Defensin peptide was pre-incubated with 3-Lipid II at varying molar ratios for 30 min prior to addition of bacteria. Bacteria were subsequently exposed to HNP-1 for 30 min. Each curve is the mean of two separate experiments (±S.D.). Points scored as zero survival could not be plotted.
The D-Ala-D-Ala motif in the pentapeptide is the predominant binding site for vancomycin, a drug of “last resort” for many multi-drug resistant Gram-positive infections. To examine if the interaction of HNP-1 with Lipid II overlaps with the vancomycin binding site, antagonization assays were performed. Diacetyl-Lys-D-Ala-D-Ala (D-Ala) was used as […] and the non-specific peptide diacetyl-Lys-D-ala-D-Lac (D-Lac) as a control. Both vancomycin and HNP-1 were pre-incubated at a 1:200 molar ratio with both compounds for 30 min, similar to experiments with soluble Lipid II (FIG. 3). Subsequently, the inventors determined any antagonizing effects on the killing of S. aureus (FIG. 4). […] In particular, survival curves of S. aureus ATCC 29213 exposed to HNP1 (upper panel) at concentrations varying two-fold from 50 to 1.25 μM or to vancomycin (lower panel) at concentrations varying two-fold from 2 to 0.0125 μM. HNP-1 and vancomycin were pre-incubated with D-ala or D-lac at a 1:200 molar ratio for 30 min prior to addition of bacteria. Bacteria were subsequently exposed to HNP-1 or vancomycin for 30 min. Each curve is the mean of two separate experiments (±S.D.). Points scored as zero survival could not be plotted.

| Compound | Killing of S. aureus by HNP-1 single alanine mutants [1] | Bactericidal activity against E. coli relative to wild-type HNP-1 [2] | Binding of HNP-1 single alanine mutants to Lipid II compared to wild-type HNP-1 [3] | Bactericidal activity after pre-incubation with 3-Lipid II ([4]; 1:1 molar ratio, 30 min pre-incubation, S. aureus) | Effect of pre-incubation with D-Ala (Diacetyl-Lys-D-Ala-D-Ala) on killing of S. aureus [4] | Effect of pre-incubation with D-Lac (diacetyl-Lys-D-ala-D-Lac) on killing of S. aureus [4] | Killing of S. aureus ([4]; without antagonist, 30 min exposure) |
| --- | --- | --- | --- | --- | --- | --- | --- |
| Arg15: HNP-1 single alanine mutant, Arg15 replaced by alanine | severely compromised | exception | significant reduction of binding | – | – | – | – |
| Ile20: HNP-1 single alanine mutant, Ile20 replaced by alanine | severely compromised | comparable to the wild-type peptide | significant reduction of binding | – | – | – | – |
| Leu25: HNP-1 single alanine mutant, Leu25 replaced by alanine | severely compromised | comparable to the wild-type peptide | significant reduction of binding | – | – | – | – |
| HNP-1: α-defensin Human Neutrophil Peptide 1, chemically synthesized, wild-type | – | – | – | reduced by one order of magnitude | not competitively inhibited | not competitively inhibited | – |
| CN[C@H](CC(C)C)C(=O)N[C@H]1C(=O)N[C@@H](CC(N)=O)C(=O)N[C@H]2C(=O)N[C@H]3C(=O)N[C@H](C(=O)N[C@H](C(=O)O)c4cc(O)cc(O)c4-c4cc3ccc4O)[C@H](O)c3ccc(c(Cl)c3)Oc3cc2cc(c3O[C@@H]2O[C@H](CO)[C@@H](O)[C@H](O)[C@H]2O[C@H]2C[C@](C)(N)[C@H](O)[C@H](C)O2)Oc2ccc(cc2Cl)[C@H]1O [Vancomycin, vancomycin] | – | – | – | – | specifically inhibited the killing | not altered | very effectively |
